Test results from ChEMBL document CHEMBL5465560, “Selectivity Literature for EUbOPEN Chemogenomic Library” (2024).

How the values were obtained:
[1] = molecular target: T1, Ankyrin repeat and protein kinase domain-containing protein 1 (Homo sapiens) (UniProt Q8NFD2); test: Selectivity interaction (LanthaScreen Eu Kinase Binding Assay) EUB0001632a ANKK1; details: at 10 µM
T1 sequence (whole entry): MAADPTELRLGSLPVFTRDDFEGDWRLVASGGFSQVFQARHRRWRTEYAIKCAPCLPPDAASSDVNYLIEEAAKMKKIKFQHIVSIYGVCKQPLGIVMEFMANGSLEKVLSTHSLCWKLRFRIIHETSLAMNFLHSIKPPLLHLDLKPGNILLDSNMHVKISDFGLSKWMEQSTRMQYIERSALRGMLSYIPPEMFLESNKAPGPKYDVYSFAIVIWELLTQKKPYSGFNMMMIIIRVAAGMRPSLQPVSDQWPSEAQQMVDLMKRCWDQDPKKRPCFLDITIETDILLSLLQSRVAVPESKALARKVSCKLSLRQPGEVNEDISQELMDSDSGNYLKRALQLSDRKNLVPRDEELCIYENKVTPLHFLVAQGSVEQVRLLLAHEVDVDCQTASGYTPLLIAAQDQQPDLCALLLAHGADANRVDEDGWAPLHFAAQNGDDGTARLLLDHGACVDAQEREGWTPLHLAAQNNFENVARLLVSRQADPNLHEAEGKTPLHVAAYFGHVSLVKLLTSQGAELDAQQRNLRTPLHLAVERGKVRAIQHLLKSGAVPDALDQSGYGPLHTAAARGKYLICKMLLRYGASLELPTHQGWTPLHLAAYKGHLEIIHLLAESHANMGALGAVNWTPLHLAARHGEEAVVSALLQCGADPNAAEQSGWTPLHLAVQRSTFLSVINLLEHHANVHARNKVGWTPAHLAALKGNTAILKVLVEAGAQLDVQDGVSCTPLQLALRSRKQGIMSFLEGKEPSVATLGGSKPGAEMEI

[2] = molecular target: Serine/threonine-protein kinase/endoribonuclease IRE1 (Homo sapiens) (UniProt O75460); test: Selectivity interaction (LanthaScreen Eu Kinase Binding Assay) EUB0001632a ERN1; details: at 10 µM
D(1A) dopamine receptor = D(1A) dopamine receptor (Homo sapiens, UniProt P21728); test: Selectivity interaction (GPCR panel (PDSP screen)) EUB0000311b DRD1; details: at 10 µM
[3] = molecular target: Protein-tyrosine kinase 2-beta (Homo sapiens) (UniProt Q14289); test: Selectivity interaction (SelectScreen profiling (Invitrogen)) EUB0000607a PTK2B; details: at 2 µM
[4] = molecular target: Tyrosine-protein kinase Fer (Homo sapiens) (UniProt P16591); test: Selectivity interaction (SelectScreen profiling (Invitrogen)) EUB0000607a FER; details: at 2 µM
[5] = molecular target: T2, Muscle, skeletal receptor tyrosine-protein kinase (Homo sapiens) (UniProt O15146); test: Selectivity interaction (KinomeScan (DiscoverX)) EUB0000607a MUSK; details: at 10 µM
T2 sequence (whole entry): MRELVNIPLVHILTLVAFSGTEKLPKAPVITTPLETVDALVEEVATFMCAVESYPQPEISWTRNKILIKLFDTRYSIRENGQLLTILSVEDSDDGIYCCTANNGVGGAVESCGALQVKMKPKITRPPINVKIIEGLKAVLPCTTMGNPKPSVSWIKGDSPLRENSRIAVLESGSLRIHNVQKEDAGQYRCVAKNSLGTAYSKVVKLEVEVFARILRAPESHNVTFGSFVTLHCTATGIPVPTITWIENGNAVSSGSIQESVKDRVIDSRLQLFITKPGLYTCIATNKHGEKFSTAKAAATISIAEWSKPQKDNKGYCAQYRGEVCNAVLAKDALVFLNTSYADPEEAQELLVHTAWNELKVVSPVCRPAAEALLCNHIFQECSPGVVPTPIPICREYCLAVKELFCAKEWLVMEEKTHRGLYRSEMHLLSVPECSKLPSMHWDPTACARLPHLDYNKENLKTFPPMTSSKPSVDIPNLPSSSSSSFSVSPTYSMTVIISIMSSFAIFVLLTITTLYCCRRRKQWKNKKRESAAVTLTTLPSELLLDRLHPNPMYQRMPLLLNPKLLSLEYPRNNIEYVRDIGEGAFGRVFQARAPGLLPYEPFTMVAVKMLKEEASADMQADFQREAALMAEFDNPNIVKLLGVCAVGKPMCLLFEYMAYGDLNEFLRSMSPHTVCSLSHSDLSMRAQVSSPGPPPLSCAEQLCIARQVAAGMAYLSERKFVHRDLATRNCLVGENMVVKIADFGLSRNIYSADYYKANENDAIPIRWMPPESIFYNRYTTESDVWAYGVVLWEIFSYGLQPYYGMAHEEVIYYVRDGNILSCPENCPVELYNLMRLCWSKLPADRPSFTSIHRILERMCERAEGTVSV

Insulin receptor = Insulin receptor (Homo sapiens, UniProt P06213); test: Selectivity interaction (KinomeScan (DiscoverX)) EUB0000045b INSR
[6] = molecular target: T3, NUAK family SNF1-like kinase 2 (Homo sapiens) (UniProt Q9H093); test: Selectivity interaction (KinomeScan (DiscoverX)) EUB0000618a NUAK2; details: at 10 µM
T3 sequence (whole entry): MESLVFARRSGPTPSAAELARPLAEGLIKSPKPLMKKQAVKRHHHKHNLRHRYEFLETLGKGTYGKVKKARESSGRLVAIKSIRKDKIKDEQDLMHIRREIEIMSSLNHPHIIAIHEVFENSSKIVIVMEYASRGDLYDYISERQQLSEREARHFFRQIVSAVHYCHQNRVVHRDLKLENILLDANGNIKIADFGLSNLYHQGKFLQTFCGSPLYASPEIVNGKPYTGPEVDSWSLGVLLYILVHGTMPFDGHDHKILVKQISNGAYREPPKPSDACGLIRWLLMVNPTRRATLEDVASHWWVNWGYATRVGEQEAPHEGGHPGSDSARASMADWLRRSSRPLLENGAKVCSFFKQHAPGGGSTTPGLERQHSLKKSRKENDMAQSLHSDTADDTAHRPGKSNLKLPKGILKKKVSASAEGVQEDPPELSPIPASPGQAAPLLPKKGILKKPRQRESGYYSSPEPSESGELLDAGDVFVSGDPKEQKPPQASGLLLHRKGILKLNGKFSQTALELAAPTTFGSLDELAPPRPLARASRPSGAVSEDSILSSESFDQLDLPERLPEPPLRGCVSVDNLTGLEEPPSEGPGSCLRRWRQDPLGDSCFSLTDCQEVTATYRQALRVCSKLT

[7] = molecular target: Serine/threonine-protein kinase MRCK gamma (Homo sapiens) (UniProt Q6DT37); test: Selectivity interaction (KinomeScan (DiscoverX)) EUB0001619a CDC42BPG; details: at 1 µM

Insulin receptor, sequence (P06213 28-758 limits assumed): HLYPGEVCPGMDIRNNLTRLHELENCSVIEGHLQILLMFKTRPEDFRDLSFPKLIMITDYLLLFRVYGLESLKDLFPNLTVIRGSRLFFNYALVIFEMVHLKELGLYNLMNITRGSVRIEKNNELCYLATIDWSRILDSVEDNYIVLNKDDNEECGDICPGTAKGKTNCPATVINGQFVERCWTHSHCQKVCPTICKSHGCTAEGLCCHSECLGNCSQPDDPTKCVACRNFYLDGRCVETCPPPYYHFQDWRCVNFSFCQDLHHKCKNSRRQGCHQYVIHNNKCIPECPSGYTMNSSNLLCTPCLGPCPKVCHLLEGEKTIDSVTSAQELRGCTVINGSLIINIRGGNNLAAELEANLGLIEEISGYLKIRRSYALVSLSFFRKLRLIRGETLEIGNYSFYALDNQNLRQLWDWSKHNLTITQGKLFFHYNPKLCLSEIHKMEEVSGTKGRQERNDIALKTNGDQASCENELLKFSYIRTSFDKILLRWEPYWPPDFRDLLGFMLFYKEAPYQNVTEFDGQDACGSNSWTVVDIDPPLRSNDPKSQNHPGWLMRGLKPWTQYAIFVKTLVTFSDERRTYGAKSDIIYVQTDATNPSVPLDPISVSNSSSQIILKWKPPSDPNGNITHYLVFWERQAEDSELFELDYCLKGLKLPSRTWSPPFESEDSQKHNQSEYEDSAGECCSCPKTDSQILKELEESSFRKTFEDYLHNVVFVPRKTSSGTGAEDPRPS
Insulin receptor, sequence (P06213 763-1382 limits assumed): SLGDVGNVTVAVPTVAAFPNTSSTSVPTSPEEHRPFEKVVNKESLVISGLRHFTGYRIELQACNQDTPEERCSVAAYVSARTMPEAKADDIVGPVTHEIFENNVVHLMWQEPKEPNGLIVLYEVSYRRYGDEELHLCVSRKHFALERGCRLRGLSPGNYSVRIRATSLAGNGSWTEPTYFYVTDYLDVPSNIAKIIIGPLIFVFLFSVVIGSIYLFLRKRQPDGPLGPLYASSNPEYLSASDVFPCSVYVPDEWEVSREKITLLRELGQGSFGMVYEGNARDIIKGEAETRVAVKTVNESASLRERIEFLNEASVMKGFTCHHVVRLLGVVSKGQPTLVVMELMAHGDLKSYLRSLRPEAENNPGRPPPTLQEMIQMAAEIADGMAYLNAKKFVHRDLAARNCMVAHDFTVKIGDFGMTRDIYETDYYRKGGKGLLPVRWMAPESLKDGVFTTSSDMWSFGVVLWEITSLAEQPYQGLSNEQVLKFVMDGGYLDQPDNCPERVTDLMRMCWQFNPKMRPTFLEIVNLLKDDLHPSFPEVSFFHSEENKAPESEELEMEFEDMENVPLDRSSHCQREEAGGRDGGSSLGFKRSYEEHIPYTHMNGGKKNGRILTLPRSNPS
Tyrosine-protein kinase Fer (Homo sapiens), sequence (P16591 whole entry, looked up): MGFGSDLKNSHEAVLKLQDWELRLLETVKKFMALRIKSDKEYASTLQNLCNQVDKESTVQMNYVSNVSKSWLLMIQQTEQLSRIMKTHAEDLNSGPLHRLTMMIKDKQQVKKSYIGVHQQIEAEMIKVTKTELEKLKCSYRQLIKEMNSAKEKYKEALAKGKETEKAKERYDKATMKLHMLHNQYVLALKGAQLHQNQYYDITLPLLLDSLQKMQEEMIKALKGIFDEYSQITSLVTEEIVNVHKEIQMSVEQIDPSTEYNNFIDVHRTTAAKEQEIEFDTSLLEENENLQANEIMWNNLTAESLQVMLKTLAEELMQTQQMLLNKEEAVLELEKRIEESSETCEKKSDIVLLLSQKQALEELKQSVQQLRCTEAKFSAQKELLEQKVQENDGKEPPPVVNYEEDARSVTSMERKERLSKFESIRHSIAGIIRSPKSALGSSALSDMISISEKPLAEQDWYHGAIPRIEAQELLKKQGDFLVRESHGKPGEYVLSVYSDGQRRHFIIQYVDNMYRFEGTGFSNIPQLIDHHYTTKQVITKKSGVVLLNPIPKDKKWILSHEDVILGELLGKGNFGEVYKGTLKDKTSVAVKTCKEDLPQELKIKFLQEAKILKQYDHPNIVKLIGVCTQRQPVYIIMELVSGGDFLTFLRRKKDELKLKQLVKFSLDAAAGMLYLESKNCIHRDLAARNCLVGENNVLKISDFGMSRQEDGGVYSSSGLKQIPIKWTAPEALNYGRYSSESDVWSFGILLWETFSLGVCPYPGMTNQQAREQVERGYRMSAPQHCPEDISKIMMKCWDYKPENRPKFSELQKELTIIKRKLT
Serine/threonine-protein kinase/endoribonuclease IRE1 (Homo sapiens), sequence (O75460 19-977 limits assumed): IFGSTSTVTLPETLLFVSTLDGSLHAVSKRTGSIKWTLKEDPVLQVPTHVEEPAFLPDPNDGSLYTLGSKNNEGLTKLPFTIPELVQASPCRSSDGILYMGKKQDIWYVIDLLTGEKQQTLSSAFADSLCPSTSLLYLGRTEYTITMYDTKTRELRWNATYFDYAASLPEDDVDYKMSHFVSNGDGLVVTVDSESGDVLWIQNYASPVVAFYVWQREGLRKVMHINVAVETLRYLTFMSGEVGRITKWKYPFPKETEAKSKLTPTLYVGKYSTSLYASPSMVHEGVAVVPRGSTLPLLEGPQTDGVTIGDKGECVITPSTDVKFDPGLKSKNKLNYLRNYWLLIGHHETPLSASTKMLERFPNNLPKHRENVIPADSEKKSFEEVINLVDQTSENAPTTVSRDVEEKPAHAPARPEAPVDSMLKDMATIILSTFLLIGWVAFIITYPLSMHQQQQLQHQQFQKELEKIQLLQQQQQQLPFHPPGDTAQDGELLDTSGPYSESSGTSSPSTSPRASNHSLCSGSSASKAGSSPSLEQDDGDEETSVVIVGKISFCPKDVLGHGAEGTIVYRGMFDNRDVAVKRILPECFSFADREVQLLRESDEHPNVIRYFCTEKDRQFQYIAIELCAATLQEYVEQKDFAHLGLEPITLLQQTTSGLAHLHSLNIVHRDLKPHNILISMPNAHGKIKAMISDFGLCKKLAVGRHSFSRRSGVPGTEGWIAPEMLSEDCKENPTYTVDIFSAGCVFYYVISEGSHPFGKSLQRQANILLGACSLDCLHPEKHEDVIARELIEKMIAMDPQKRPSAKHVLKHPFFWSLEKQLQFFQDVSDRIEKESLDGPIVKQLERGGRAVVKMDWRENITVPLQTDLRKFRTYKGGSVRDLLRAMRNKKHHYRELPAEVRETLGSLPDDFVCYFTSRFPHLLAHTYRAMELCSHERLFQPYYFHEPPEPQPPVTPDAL
D(1A) dopamine receptor, sequence (P21728 whole entry): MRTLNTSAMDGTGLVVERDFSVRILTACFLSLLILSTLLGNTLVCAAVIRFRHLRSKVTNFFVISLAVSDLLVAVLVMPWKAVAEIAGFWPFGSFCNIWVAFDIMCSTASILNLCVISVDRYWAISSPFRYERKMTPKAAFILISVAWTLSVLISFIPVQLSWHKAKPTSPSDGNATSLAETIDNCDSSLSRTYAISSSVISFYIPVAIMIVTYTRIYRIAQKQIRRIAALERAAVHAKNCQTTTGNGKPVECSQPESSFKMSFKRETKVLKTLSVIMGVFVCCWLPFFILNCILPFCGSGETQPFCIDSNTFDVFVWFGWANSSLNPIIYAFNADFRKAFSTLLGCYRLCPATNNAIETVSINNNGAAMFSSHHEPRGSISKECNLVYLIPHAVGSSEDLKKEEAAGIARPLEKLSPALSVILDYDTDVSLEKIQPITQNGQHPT
Protein-tyrosine kinase 2-beta (Homo sapiens), sequence (Q14289 whole entry, looked up): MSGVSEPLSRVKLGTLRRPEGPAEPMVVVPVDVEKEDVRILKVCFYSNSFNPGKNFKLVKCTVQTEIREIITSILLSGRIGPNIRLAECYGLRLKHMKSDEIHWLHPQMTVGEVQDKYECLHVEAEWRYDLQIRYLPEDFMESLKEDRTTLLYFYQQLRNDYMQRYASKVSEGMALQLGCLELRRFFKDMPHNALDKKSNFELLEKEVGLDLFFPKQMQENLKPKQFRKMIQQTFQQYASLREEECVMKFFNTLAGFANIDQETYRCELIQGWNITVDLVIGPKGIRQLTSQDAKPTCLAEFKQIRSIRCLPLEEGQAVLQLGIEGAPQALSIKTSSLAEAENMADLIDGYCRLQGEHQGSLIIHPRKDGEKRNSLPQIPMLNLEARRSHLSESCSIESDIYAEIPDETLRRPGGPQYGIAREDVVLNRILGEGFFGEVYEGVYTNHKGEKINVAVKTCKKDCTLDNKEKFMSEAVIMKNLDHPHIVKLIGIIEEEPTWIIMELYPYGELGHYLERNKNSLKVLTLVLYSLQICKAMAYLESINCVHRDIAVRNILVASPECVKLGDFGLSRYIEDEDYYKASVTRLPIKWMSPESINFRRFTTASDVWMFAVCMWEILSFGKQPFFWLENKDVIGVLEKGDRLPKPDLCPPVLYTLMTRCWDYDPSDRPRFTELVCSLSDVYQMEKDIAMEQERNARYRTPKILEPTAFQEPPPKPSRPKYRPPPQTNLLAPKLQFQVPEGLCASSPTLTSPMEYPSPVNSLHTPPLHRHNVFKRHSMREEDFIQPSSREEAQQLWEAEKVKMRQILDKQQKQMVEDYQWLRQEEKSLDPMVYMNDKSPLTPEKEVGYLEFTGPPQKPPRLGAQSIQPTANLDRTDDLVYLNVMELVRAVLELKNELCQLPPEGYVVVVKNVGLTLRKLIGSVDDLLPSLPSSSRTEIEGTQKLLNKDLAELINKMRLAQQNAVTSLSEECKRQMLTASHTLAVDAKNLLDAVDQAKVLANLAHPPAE

Cn1cc(-n2cnc3c(NCc4nc5cc(Cl)c(Cl)cc5[nH]4)nc(N4CCOCC4)nc32)cn1
% of inhibition [1]: -44.9%
% of inhibition [2]: -111%

CCc1ccccc1C(=O)Nc1n[nH]c2c(C)c(F)c(C3C(C#N)=C(C)N(C)C(C)=C3C#N)cc12 [BAY-3827]
% of inhibition (D(1A) dopamine receptor): 67.4%

CNC(=O)Nc1ccc(-c2nc(N3CC4CCC(C3)O4)c3cnn(C4CCC5(CC4)OCCO5)c3n2)cc1
% of inhibition [3]: -3%
% of inhibition [4]: 5%
% of control [5]: 92%

C=CC(=O)Nc1cc(-n2c(=O)ccc3cnc4ccc(-c5ccc(NS(C)(=O)=O)cc5)cc4c32)ccc1C
% of control (Insulin receptor; at 1 µM): 93%
% of control (Insulin receptor; at 10 µM): 100%

O[C@H]1CC[C@H](Nc2ncc3nc(Nc4c(F)cc(F)cc4F)n([C@H]4CCOC4)c3n2)CC1
% of control [6]: 52%

N#Cc1cccc(-c2c[nH]c3ncnc(N4CCOCC4)c23)c1
% of control [7]: 100%
